Measurements: ChEMBL document CHEMBL3351453 (2014)
Activity calls are given as the source filed them. The calls are words filed in the database; no cut-off is given here.

Legend:
[1] = system: A549; assay: Cytotoxicity against human A549 cells assessed as cell viability at >40 uM after 24 hrs by MTT assay relative to gefitinib; assay type: functional
[2] = system: A549; assay: Cytotoxicity against human A549 cells assessed as cell viability at 20 uM after 24 hrs by MTT assay (reference value: 100%); assay type: functional; conditions: A549, 24 h, read-out: Activity
[3] = system: A549; assay: Cytotoxicity against human A549 cells assessed as cell viability at 60 uM after 24 hrs by MTT assay (reference value: 100%); assay type: functional; conditions: A549, 24 h, read-out: Activity
[4] = system: A549; assay: Cytotoxicity against human A549 cells assessed as cell viability at 10 uM after 24 hrs by MTT assay (reference value: 100%); assay type: functional; conditions: A549, 24 h, read-out: Activity
[5] = system: A549; assay: Cytotoxicity against human A549 cells assessed as cell viability at 80 uM after 24 hrs by MTT assay (reference value: 100%); assay type: functional; conditions: A549, 24 h, read-out: Activity
[6] = system: A549; assay: Cytotoxicity against human A549 cells assessed as cell viability at 40 uM after 24 hrs by MTT assay (reference value: 100%); assay type: functional; conditions: A549, 24 h, read-out: Activity
[7] = system: BFTC-905; conditions: Homo sapiens, at 20 to 80 µM
Description: Cytotoxicity against human BFTC905 cells assessed as reduction in cell viability at 20 to 80 uM after 24 hrs by MTT assay

[8] = system: RKO; conditions: Homo sapiens, at 20 to 80 µM
Description: Cytotoxicity against human RKO cells assessed as reduction in cell viability at 20 to 80 uM after 24 hrs by MTT assay

Row | Structure (SMILES) | Ratio [1] | inhibition [7] | inhibition [8] | further results
1 | CCCCCCCCCCCCOC(=O)CCC(=O)N1CCN(CCCOc2cc3c(Nc4ccc(F)c(Cl)c4)ncnc3cc2OC)CC1 | 15 | – | – | –
2 | CCCCCCCCCCCOC(=O)CCC(=O)N1CCN(CCCOc2cc3c(Nc4ccc(F)c(Cl)c4)ncnc3cc2OC)CC1 | 15 | – | – | –
3 | COc1cc2ncnc(Nc3ccc(F)c(Cl)c3)c2cc1OCCCN1CCOC(=O)C1 | – | – | – | viability at 20 µM [2]: 93.1%; viability at 60 µM [3]: 94.1%; viability at 10 µM [4]: 96.1%; viability at 80 µM [5]: 94.9%; viability at 40 µM [6]: 91%
4 | CCCCCCCCCCOC(=O)CCC(=O)N1CCN(CCCOc2cc3c(Nc4ccc(F)c(Cl)c4)ncnc3cc2OC)CC1 | 15 | – | – | –
5 | COc1cc2ncnc(Nc3ccc(F)c(Cl)c3)c2cc1OCCCN1CCN(C(=O)CCC(=O)O)CC1 | – | Active | Active | –
6 | COC(=O)CCC(=O)N1CCN(CCCOc2cc3c(Nc4ccc(F)c(Cl)c4)ncnc3cc2OC)CC1 | – | Active | Active | –
